Test results as given in ChEMBL document CHEMBL1201862, “PubChem BioAssay data set” (2004).
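Dose response: 5 concentrations. Exposure: 48 h. Format: 96-well plates. Endpoint: linear interpolation; highest concentration if not reached. At the GI50, growth is halved.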 The source made the active and inactive calls. Cut-off read from the data, not from the text of the source: active = GI50 up to about 1.1 µM and inactive = higher.

Tests used:
Assay in all cases: NCI tumour cell line growth inhibition, 48 h
ACHN = system: ACHN
K562 = system: K562
UACC-257 = system: UACC-257
U-251 = system: U-251
SNB-19 = system: SNB-19
UACC-62 = system: UACC-62
KM12 = system: KM12
MOLT-4 = system: MOLT-4
786-0 = system: 786-0
NCI/ADR-RES = system: NCI/ADR-RES
HOP-92 = system: HOP-92
SN12C = system: SN12C
SF-539 = system: SF-539
RXF 393 = system: RXF 393
NCI-H460 = system: NCI-H460
SK-MEL-5 = system: SK-MEL-5
DU-145 = system: DU-145
A498 = system: A498
HL-60 = system: HL-60
SNB-75 = system: SNB-75

Row | Structure (SMILES) | GI50 (ACHN) | GI50 (K562) | GI50 (UACC-257) | GI50 (U-251) | GI50 (SNB-19) | GI50 (UACC-62) | GI50 (KM12) | GI50 (MOLT-4) | GI50 (786-0) | GI50 (NCI/ADR-RES) | GI50 (HOP-92) | GI50 (SN12C) | GI50 (SF-539) | GI50 (RXF 393) | GI50 (NCI-H460) | GI50 (SK-MEL-5) | GI50 (DU-145) | GI50 (A498) | GI50 (HL-60) | GI50 (SNB-75)
1 | CN(CCCN=C=S)CCCN1c2ccccc2CCc2ccccc21 | 1.75 µM (inactive) | 0.45 µM (active) | 2.03 µM (inactive) | 1.81 µM (inactive) | 1.72 µM (inactive) | 1.79 µM (inactive) | 1.73 µM (inactive) | 0.611 µM (active) | 1.64 µM (inactive) | 1.29 µM (inactive) | 2.07 µM (inactive) | 1.69 µM (inactive) | 1.76 µM (inactive) | 1.92 µM (inactive) | 1.82 µM (inactive) | 1.78 µM (inactive) | 1.83 µM (inactive) | 1.66 µM (inactive) | 1.94 µM (inactive) | –
2 | O=C(CC(O)c1cccnc1)CC(O)c1cccnc1 (stereo not given) | 17.8 µM (inactive) | 2.75 µM (inactive) | 18.1 µM (inactive) | 16.5 µM (inactive) | 21.7 µM (inactive) | 16.6 µM (inactive) | 11.1 µM (inactive) | 3.49 µM (inactive) | 16.3 µM (inactive) | 24 µM (inactive) | 17.4 µM (inactive) | 18.6 µM (inactive) | 21.2 µM (inactive) | 16.7 µM (inactive) | 19.7 µM (inactive) | 16.1 µM (inactive) | 32.2 µM (inactive) | 15.9 µM (inactive) | 3.17 µM (inactive) | 14.5 µM (inactive)
3 | C=CCOc1ccc(C2c3c(n[nH]c3O)CC(C)(O)C2C(=O)OC)cc1OC (stereo not given) | > 100 µM (inactive) | – | > 100 µM (inactive) | > 100 µM (inactive) | > 100 µM (inactive) | > 100 µM (inactive) | > 100 µM (inactive) | > 100 µM (inactive) | > 100 µM (inactive) | > 100 µM (inactive) | > 100 µM (inactive) | > 100 µM (inactive) | > 100 µM (inactive) | – | > 100 µM (inactive) | > 100 µM (inactive) | > 100 µM (inactive) | > 100 µM (inactive) | > 100 µM (inactive) | > 100 µM (inactive)
4 | CC(C)(C)OC(=O)NCCC(=O)NC1(c2cc3ccccc3s2)CCCCC1 | 24.5 µM (inactive) | 12.3 µM (inactive) | 19.1 µM (inactive) | 19.3 µM (inactive) | 17.4 µM (inactive) | 20.6 µM (inactive) | 18.7 µM (inactive) | 10.9 µM (inactive) | 17.5 µM (inactive) | 18.1 µM (inactive) | 16.6 µM (inactive) | 18.3 µM (inactive) | 15 µM (inactive) | 12.8 µM (inactive) | 14.8 µM (inactive) | 13.1 µM (inactive) | 16.7 µM (inactive) | 22.9 µM (inactive) | 16.7 µM (inactive) | 17.4 µM (inactive)
5 | CCOC(=O)c1cc(-c2ccc(OC)c(OC)c2)cn1C | > 10 µM (inactive) | > 10 µM (inactive) | > 10 µM (inactive) | > 10 µM (inactive) | > 10 µM (inactive) | > 10 µM (inactive) | > 10 µM (inactive) | > 10 µM (inactive) | > 10 µM (inactive) | > 10 µM (inactive) | > 10 µM (inactive) | > 10 µM (inactive) | > 10 µM (inactive) | > 10 µM (inactive) | > 10 µM (inactive) | > 10 µM (inactive) | > 10 µM (inactive) | > 10 µM (inactive) | > 10 µM (inactive) | 4.43 µM (inactive)
6 | CC(C)/C(Cl)=N\OC(=O)Nc1ccc(C#N)cc1 | 6.95 µM (inactive) | 2 µM (inactive) | 12.3 µM (inactive) | 18 µM (inactive) | 18.3 µM (inactive) | 17 µM (inactive) | 15.8 µM (inactive) | 1.92 µM (inactive) | 5.12 µM (inactive) | 17.1 µM (inactive) | 1.56 µM (inactive) | 13.7 µM (inactive) | 15.9 µM (inactive) | 1.85 µM (inactive) | 17.3 µM (inactive) | 5.11 µM (inactive) | 18 µM (inactive) | 14.5 µM (inactive) | 2.56 µM (inactive) | 17.7 µM (inactive)
7 | Cc1cc2c(cc1C)[n+]([O-])c(C(=O)N1CCN(c3ccc([N+](=O)[O-])cc3)CC1)c(C)[n+]2[O-] | 2.84 µM (inactive) | > 100 µM (inactive) | > 100 µM (inactive) | 11.9 µM (inactive) | 64.9 µM (inactive) | 41.9 µM (inactive) | > 100 µM (inactive) | > 100 µM (inactive) | 14.3 µM (inactive) | > 100 µM (inactive) | 23.6 µM (inactive) | 63.7 µM (inactive) | 17.7 µM (inactive) | 14.4 µM (inactive) | 22.9 µM (inactive) | 74.6 µM (inactive) | 29.5 µM (inactive) | 27.2 µM (inactive) | > 100 µM (inactive) | –
8 | O=c1c2cc([N+](=O)[O-])ccc2nc2n1CCCCC2 | > 100 µM (inactive) | > 100 µM (inactive) | > 100 µM (inactive) | > 100 µM (inactive) | – | > 100 µM (inactive) | > 100 µM (inactive) | > 100 µM (inactive) | > 100 µM (inactive) | > 100 µM (inactive) | > 100 µM (inactive) | > 100 µM (inactive) | > 100 µM (inactive) | > 100 µM (inactive) | > 100 µM (inactive) | > 100 µM (inactive) | > 100 µM (inactive) | 87.9 µM (inactive) | 14.2 µM (inactive) | 57.1 µM (inactive)
9 | O=C1OCc2c1cc1cc3c(cc1c2-c1ccc2c(c1)OCO2)OCO3.O=C1OCc2cc3cc4c(cc3c(-c3ccc5c(c3)OCO5)c21)OCO4 | – | 0.979 µM (active) | 25.5 µM (inactive) | 13.2 µM (inactive) | 30 µM (inactive) | 8.55 µM (inactive) | 11.1 µM (inactive) | 2.31 µM (inactive) | – | 4.68 µM (inactive) | 13.8 µM (inactive) | 15 µM (inactive) | – | 5.73 µM (inactive) | 5.79 µM (inactive) | 4.7 µM (inactive) | 11.3 µM (inactive) | 24.7 µM (inactive) | 34.8 µM (inactive) | 10 µM (inactive)
10 | O=C1NC2NC3NC(=O)NC3NC2N1 (stereo not given) | > 100 µM (inactive) | > 100 µM (inactive) | > 100 µM (inactive) | > 100 µM (inactive) | > 100 µM (inactive) | > 100 µM (inactive) | > 100 µM (inactive) | > 100 µM (inactive) | > 100 µM (inactive) | > 100 µM (inactive) | > 100 µM (inactive) | > 100 µM (inactive) | > 100 µM (inactive) | > 100 µM (inactive) | – | > 100 µM (inactive) | > 100 µM (inactive) | > 100 µM (inactive) | > 100 µM (inactive) | 76.4 µM (inactive)
11 | N=C(N)SCCN1CCCCC1 | 25.6 µM (inactive) | 20 µM (inactive) | 18.6 µM (inactive) | 19.9 µM (inactive) | – | 23.4 µM (inactive) | 40.6 µM (inactive) | 20.6 µM (inactive) | 22.3 µM (inactive) | 29.2 µM (inactive) | 27.9 µM (inactive) | 26.3 µM (inactive) | 35.7 µM (inactive) | 16.1 µM (inactive) | 32.7 µM (inactive) | 48 µM (inactive) | 24.7 µM (inactive) | 48.6 µM (inactive) | 21.2 µM (inactive) | 37.4 µM (inactive)
12 | CN1C2CCC1CC(CCNC(c1ccccc1)c1ccccc1)C2 (stereo not given) | 80.5 µM (inactive) | 6.5 µM (inactive) | 16.4 µM (inactive) | 30.6 µM (inactive) | > 100 µM (inactive) | – | 44 µM (inactive) | 25.4 µM (inactive) | 17.5 µM (inactive) | > 100 µM (inactive) | 18 µM (inactive) | 83 µM (inactive) | 17.9 µM (inactive) | 14.4 µM (inactive) | 83.9 µM (inactive) | 12.9 µM (inactive) | > 100 µM (inactive) | 23.8 µM (inactive) | 31 µM (inactive) | 47.2 µM (inactive)
13 | Cc1ccc(/C=C/C(=O)c2cc(CN(C)C)c(O)c(CN(C)C)c2)cc1 | 12.1 µM (inactive) | 13.8 µM (inactive) | 13.8 µM (inactive) | 21.9 µM (inactive) | – | – | 12.1 µM (inactive) | 16 µM (inactive) | 27.2 µM (inactive) | 25.4 µM (inactive) | 31.9 µM (inactive) | 14.2 µM (inactive) | 16.6 µM (inactive) | 18.7 µM (inactive) | 12 µM (inactive) | 14.7 µM (inactive) | 30.2 µM (inactive) | 25.2 µM (inactive) | 11.7 µM (inactive) | 24.4 µM (inactive)
14 | CC1(CO)OC(n2cnc3cncnc32)CC1O (stereo not given) | > 100 µM (inactive) | > 100 µM (inactive) | > 100 µM (inactive) | > 100 µM (inactive) | > 100 µM (inactive) | > 100 µM (inactive) | > 100 µM (inactive) | > 100 µM (inactive) | > 100 µM (inactive) | > 100 µM (inactive) | > 100 µM (inactive) | > 100 µM (inactive) | > 100 µM (inactive) | > 100 µM (inactive) | > 100 µM (inactive) | > 100 µM (inactive) | > 100 µM (inactive) | > 100 µM (inactive) | > 100 µM (inactive) | –
15 | N=C(N)N/N=C/c1c(-c2ccc(Cl)c([N+](=O)[O-])c2)nc2sc(Cl)cn12 | 1.98 µM (inactive) | 0.617 µM (active) | 1.91 µM (inactive) | 2.95 µM (inactive) | 1.79 µM (inactive) | 1.95 µM (inactive) | 2.56 µM (inactive) | 1.63 µM (inactive) | 3.15 µM (inactive) | 46 µM (inactive) | 1.67 µM (inactive) | 2.32 µM (inactive) | 2.3 µM (inactive) | 1.77 µM (inactive) | 2.7 µM (inactive) | 4.07 µM (inactive) | 1.95 µM (inactive) | 1.95 µM (inactive) | 3.45 µM (inactive) | –
